Laboratory results as given in patent US4749717A, “Dopamine-beta-hydroxylase inhibitors” (SmithKline Beckman Corporation, priority 1987, dated 1988).

How the values were obtained:
[1] = biological target: T1, DBH (dopamine-β-hydroxylase) (Bos taurus, UniProt P15101); test: in vitro DBH inhibition (conversion of tyramine to octopamine; spectrophotometric absorbance at 330 nm); assay type: biochemical; details: concentration of compound at which DBH activity was halved
T1 sequence (P15101 1-610): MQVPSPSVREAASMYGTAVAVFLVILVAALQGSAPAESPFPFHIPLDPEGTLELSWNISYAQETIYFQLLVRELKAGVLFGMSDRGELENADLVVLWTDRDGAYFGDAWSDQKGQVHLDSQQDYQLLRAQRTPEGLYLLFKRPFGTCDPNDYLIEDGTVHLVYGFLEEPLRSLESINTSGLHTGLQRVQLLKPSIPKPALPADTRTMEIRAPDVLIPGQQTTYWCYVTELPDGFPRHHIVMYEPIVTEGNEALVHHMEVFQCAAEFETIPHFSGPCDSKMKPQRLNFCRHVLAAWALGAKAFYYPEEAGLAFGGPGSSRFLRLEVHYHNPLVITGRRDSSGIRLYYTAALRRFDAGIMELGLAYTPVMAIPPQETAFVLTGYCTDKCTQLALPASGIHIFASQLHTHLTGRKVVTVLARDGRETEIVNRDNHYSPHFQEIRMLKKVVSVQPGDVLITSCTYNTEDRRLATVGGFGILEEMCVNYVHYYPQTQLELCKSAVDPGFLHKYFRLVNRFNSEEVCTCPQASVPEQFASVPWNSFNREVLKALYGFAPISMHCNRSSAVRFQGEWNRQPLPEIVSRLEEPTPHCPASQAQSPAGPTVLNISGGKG
Experimental: Listed in Table I are the compounds of the invention that were tested for in vitro DBH inhibition by a standard procedure for assaying conversion of tyramine to octopamine in the presence of DBH. J. J. Pisano, et al., Biochim. Biophys. Acta, 43, 566-568 (1960). Octopamine was assayed following sodium periodate oxidation to p-hydroxybenzaldehyde by measuring spectrophotometric absorbance at 330 nm.

[2] = tested on: spontaneously hypertensive rats; test: mean arterial blood pressure in spontaneously hypertensive rats; assay type: in vivo, rat; details: 50 mg/kg intraperitoneally
Experimental: Further, spontaneously hypertensive rats were treated with a suspension or solution of 1-(2-thienylmethyl)imidazole-2-thiol at a dose of 50 mg/kg intraperitoneally, and mean arterial blood pressure was monitored for 260 minutes using indwelling cannulae in the tail arteries. […] The maximal blood pressure reduction was approximately 25 to 30 mmHg.

[3] = biological target: T2, DBH (dopamine-β-hydroxylase) (Homo sapiens, UniProt P09172); details: literature; cited from earlier work
T2 sequence (P09172 1-617): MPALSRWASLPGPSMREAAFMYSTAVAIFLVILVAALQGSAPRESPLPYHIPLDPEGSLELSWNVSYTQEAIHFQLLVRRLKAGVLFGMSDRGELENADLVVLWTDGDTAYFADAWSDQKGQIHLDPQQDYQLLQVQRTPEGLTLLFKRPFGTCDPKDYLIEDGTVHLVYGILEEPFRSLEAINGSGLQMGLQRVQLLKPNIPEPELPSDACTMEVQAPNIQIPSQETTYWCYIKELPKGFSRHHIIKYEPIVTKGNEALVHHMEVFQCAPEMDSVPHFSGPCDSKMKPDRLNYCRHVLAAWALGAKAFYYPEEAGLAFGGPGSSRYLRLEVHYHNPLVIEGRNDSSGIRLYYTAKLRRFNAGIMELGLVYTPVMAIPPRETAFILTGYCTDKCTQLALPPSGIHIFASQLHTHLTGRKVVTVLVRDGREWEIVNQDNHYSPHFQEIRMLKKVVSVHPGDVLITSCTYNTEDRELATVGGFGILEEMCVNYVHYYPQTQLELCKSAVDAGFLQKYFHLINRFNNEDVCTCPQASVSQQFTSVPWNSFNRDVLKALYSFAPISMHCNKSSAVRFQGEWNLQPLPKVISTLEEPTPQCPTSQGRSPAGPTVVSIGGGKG

[4] = Ehrreich et al.; cited from earlier work
[5] = Teresawa et al.; cited from earlier work

Row | Compound | DBH inhibition (in words) [3] | other results
1 | Sc1nccn1Cc1cccs1 [1-(2-thienylmethyl)imidazole-2-thiol, 1-(2-Thienylmethyl)Imidazole-2-Thiol] | – | IC50 [1]: 13 µM; time after treatment to significant blood pressure reductions [2]: ≤ 60 min; maximal blood pressure reduction ([2]; mean arterial blood pressure, approximately): 25 to 30 mmHg; blood pressure reduction compared to vehicle-treated controls ([2]; monitored for 260 minutes): significant blood pressure reductions
2 | Sc1nccn1Cc1ccsc1 [1-(3-thienylmethyl)imidazole-2-thiol, 1-(3-Thienylmethyl)imidazole-2-thiol] | – | IC50 [1]: 7.4 µM
3 | NCC=Cc1cccs1 [3-(2-thienyl)allylamine] | potent, time-dependent DBH inhibitors | –
4 | O=C(O)c1ccc(CCC(Br)CBr)cn1 (centres unmarked) [5-(3,4-dibromobutyl)picolinic acid] | DBH inhibitors | –
5 | O=C(O)c1ccc(CCCCCl)cn1 [5-(4-chlorobutyl) picolinic acid] | inhibit DBH | –
6 | CN(C)C(=S)SCc1ccc(C(=O)O)nc1 [5-(dimethyldithiocarbamoylmethyl)picolinic acid] | DBH inhibitors | –
7 | NOCc1ccccc1 [Benzyloxyamine, benzyloxyamine] | apparently act as competitive inhibitors | –
8 | CCCCc1ccc(C(N)=O)nc1 [Bupicomide, 5-(n-butyl)picolinamine] | DBH inhibitor | antihypertensive activity (in words) [4]: has antihypertensive activity
9 | NNCc1ccccc1 [benzylhydrazine] | apparently act as competitive inhibitors | –
10 | CCCCc1ccc(C(=O)O)nc1 [fusaric acid] | – | hepatotoxicity (in words) [5]: hepatotoxic
